Bases are written 5' to 3'; sugars and linkages follow in the same order, as letters with counts (s phosphorothioate, o phosphodiester; PS: all linkages phosphorothioate). The collection does not say whether C is 5-methylated. l = locked nucleic acid (LNA); d = 2'-deoxy (DNA) Where only a bound is given, the exact number is not on record here.

This series addresses Tau. Nature of the series: rat primary cortical neurons, FLIPR, 25 uM ASO.
Take CCATCACTTCGAACTC (sugars l3 d10 l3, PS): the calcium oscillation score is ≥ 200 % of control.

“CCATCAGTCTTATCTCC (sugars l1 d14 l2, PS)”: the calcium oscillation score was 52.9 % of control.

With “CCATCATACTCCAAGTT (sugars l3 d12 l2, PS)”, the calcium oscillation score is 60.8 % of control.

Regarding “CCATCCTAAGTCAACCA (sugars l2 d13 l2, PS)”, the calcium oscillation score was 62.8 % of control.

Consider CCATCCTATCTTCTAG (sugars l3 d10 l3, PS), for which the calcium oscillation score is 44.3 % of control.

On to “CCATCTTAATTCATTTAATT (sugars l4 d13 l3, PS)”, for which the calcium oscillation score was 69.1 % of control.

For the sequence CCATGATCTTAGGCTG (sugars l3 d10 l3, PS), the calcium oscillation score was 17.6 % of control.

With CCATGTCGATGCTGC (sugars l3 d9 l3, PS), the calcium oscillation score was 7.14 % of control.

Regarding CCATGTCGATGCTGCC (sugars l3 d10 l3, PS), the calcium oscillation score was 55.1 % of control.

On to CCATTAATTTAGCCAA (sugars l3 d9 l4, PS), for which the calcium oscillation score was 87.2 % of control.

Take “CCATTATCTCACTGCTT (sugars l3 d12 l2, PS)”: the calcium oscillation score was 29.3 % of control.

Take “CCATTCAGATCTATCCA (sugars l3 d12 l2, PS)”: the calcium oscillation score was 94.3 % of control.

Consider “CCATTCCCTCCAGAACCATC (sugars l3 d14 l3, PS)”, for which the calcium oscillation score is 36.3 % of control.

Turning to “CCATTTTCACTGTTCACA (sugars l2 d14 l2, PS)”, the calcium oscillation score was 86.3 % of control.

As for CCATTTTCCATATAATT (sugars l4 d9 l4, PS), the calcium oscillation score was 76.5 % of control.

“CCATTTTCCATATAATTT (sugars l4 d10 l4, PS)”: the calcium oscillation score was 70.7 % of control.

Regarding “CCATTTTCCATATAATTTT (sugars l3 d12 l4, PS)”, the calcium oscillation score is 79.3 % of control.

As to “CCATTTTCCATATAATTTTA (sugars l3 d14 l3, PS)”, the calcium oscillation score is 56.3 % of control.

Take “CCATTTTTATCATCACCT (sugars l3 d13 l2, PS)”: the calcium oscillation score is 63.8 % of control.

Regarding CCCAAGAGGCACAAGT (sugars l3 d10 l3, PS), the calcium oscillation score is 89.5 % of control.

Regarding CCCAATCTTCGACTGG (sugars l3 d10 l3, PS), the calcium oscillation score is 21.7 % of control.

Consider “CCCAATCTTCGACTGGACTC (sugars l3 d14 l3, PS)”, for which the calcium oscillation score was 31.6 % of control.

Take “CCCACAGCACTAAATTT (sugars l3 d11 l3, PS)”: the calcium oscillation score was 83.5 % of control.

Turning to CCCACATAAACTCCTT (sugars l3 d10 l3, PS), the calcium oscillation score was 53.4 % of control.

For “CCCACATTATATCAGTA (sugars l2 d12 l3, PS)”, the calcium oscillation score was 80.7 % of control.

“CCCACATTTGCAAACCA (sugars l2 d13 l2, PS)”: the calcium oscillation score is 53.9 % of control.

With “CCCACATTTGCAAACCAC (sugars l2 d14 l2, PS)”, the calcium oscillation score was 50.5 % of control.

For CCCACCAAAGACTTCA (sugars l2 d11 l3, PS), the calcium oscillation score is 58.3 % of control.

As to “CCCACCCAAACTCCAAGT (sugars l2 d13 l3, PS)”, the calcium oscillation score is 69.3 % of control.

“CCCACCCATCAATTTGGAAA (sugars l3 d14 l3, PS)”: the calcium oscillation score is 11.7 % of control.

For “CCCACTTTTAATTAAATTTC (sugars l3 d14 l3, PS)”, the calcium oscillation score was 76.8 % of control.

With CCCAGAATTCTAACTA (sugars l4 d10 l2, PS), the calcium oscillation score is 63.5 % of control.

As to “CCCAGAATTCTAACTAT (sugars l4 d11 l2, PS)”, the calcium oscillation score was 77 % of control.

As to “CCCAGACCATCAATTTC (sugars l2 d12 l3, PS)”, the calcium oscillation score was 82.2 % of control.

For “CCCAGCACACAGGCAGCCAC (sugars l3 d14 l3, PS)”, the calcium oscillation score was 24.2 % of control.

As for CCCAGCGTGATCTT (sugars l3 d8 l3, PS), the calcium oscillation score was 46 % of control.

Regarding CCCAGCGTGATCTTCC (sugars l3 d10 l3, PS), the calcium oscillation score is 4.6 % of control.

Consider “CCCAGCGTGATCTTCCATCA (sugars l3 d14 l3, PS)”, for which the calcium oscillation score was 104 % of control.

Take “CCCAGCGTGATCTTCCATCA (sugars l4 d11 l5, PS)”: the calcium oscillation score is 104 % of control.

In the case of “CCCAGCGTGATCTTCCATCA (sugars l5 d11 l4, PS)”, the calcium oscillation score was 106 % of control.

With “CCCAGCGTGATCTTCCATCA (sugars ldlllddddddddddlldll, PS)”, the calcium oscillation score was 124 % of control.

In the case of “CCCAGCGTGATCTTCCATCA (sugars lldllddddddddddlldll, PS)”, the calcium oscillation score is 100 % of control.

“CCCATCAATTTGGAAAGATG (sugars l3 d14 l3, PS)”: the calcium oscillation score is 58.1 % of control.

For “CCCATCTTAATTCATTTAAT (sugars l2 d14 l4, PS)”, the calcium oscillation score was 90.1 % of control.

Take “CCCATTCAGATCTATCC (sugars l2 d13 l2, PS)”: the calcium oscillation score is 102 % of control.

With CCCATTTACAATTCAG (sugars l3 d10 l3, PS), the calcium oscillation score is 52.6 % of control.

“CCCCACCCAAACTCCAAG (sugars l1 d15 l2, PS)”: the calcium oscillation score was 46.2 % of control.

On to “CCCCACTTTTAATTAAA (sugars l4 d10 l3, PS)”, for which the calcium oscillation score is 99.7 % of control.

For “CCCCACTTTTAATTAAAT (sugars l3 d11 l4, PS)”, the calcium oscillation score is 95.2 % of control.

With “CCCCACTTTTAATTAAATTT (sugars l3 d15 l2, PS)”, the calcium oscillation score is 97 % of control.

For the sequence CCCCAGACCATCAATT (sugars l2 d12 l2, PS), the calcium oscillation score is 57.7 % of control.

As for “CCCCAGACCATCAATTT (sugars l2 d13 l2, PS)”, the calcium oscillation score is 61.7 % of control.

For “CCCCATTCAGATCTATC (sugars l2 d13 l2, PS)”, the calcium oscillation score is 98.8 % of control.

On to “CCCCATTTATCCTTCATG (sugars l2 d14 l2, PS)”, for which the calcium oscillation score was 49.4 % of control.

With “CCCCATTTTTGACATAT (sugars l2 d12 l3, PS)”, the calcium oscillation score is 73.1 % of control.

Take CCCCTCCATTAAGAAC (sugars l3 d11 l2, PS): the calcium oscillation score is 68.1 % of control.

Regarding “CCCCTCCATTAAGAACCT (sugars l1 d15 l2, PS)”, the calcium oscillation score was 88.6 % of control.

Regarding CCCGAGCCAAAGCC (sugars l3 d8 l3, PS), the calcium oscillation score was 52.2 % of control.

Turning to CCCGAGCCAAAGCCGA (sugars l3 d10 l3, PS), the calcium oscillation score was 50.6 % of control.

With CCCGCCTTTAGTGATT (sugars l3 d10 l3, PS), the calcium oscillation score is 30.9 % of control.

As to “CCCGCCTTTAGTGATTACAG (sugars l3 d14 l3, PS)”, the calcium oscillation score was 2.38 % of control.

On to “CCCGGAACTCTCAACTCCTC (sugars l3 d14 l3, PS)”, for which the calcium oscillation score was 18.1 % of control.

As for “CCCGTCTTTGCTTTTACTGA (sugars l3 d14 l3, PS)”, the calcium oscillation score is 0 % of control.

In the case of CCCGTGGTCTGTCT (sugars l3 d8 l3, PS), the calcium oscillation score was 89.8 % of control.

Take CCCGTGGTCTGTCTTG (sugars l3 d10 l3, PS): the calcium oscillation score was 0 % of control.

CCCTAAACCATGATCT (sugars l3 d10 l3, PS): the calcium oscillation score is 89.7 % of control.

With CCCTAAAGTCCCAG (sugars l3 d8 l3, PS), the calcium oscillation score is 51.4 % of control.

Turning to CCCTAAAGTCCCAGG (sugars l3 d9 l3, PS), the calcium oscillation score was 72.4 % of control.

For the sequence CCCTAAAGTCCCAGGT (sugars l3 d10 l3, PS), the calcium oscillation score is 76.2 % of control.

Consider CCCTAAGCTCTCACTA (sugars l2 d12 l2, PS), for which the calcium oscillation score was 69.1 % of control.

Take “CCCTCACTTTTTATTCAAC (sugars l2 d14 l3, PS)”: the calcium oscillation score was 76 % of control.

“CCCTCCCTTTAATGCCAGGC (sugars l3 d14 l3, PS)”: the calcium oscillation score is 6.04 % of control.

On to CCCTGAAACCATTAAC (sugars l3 d9 l4, PS), for which the calcium oscillation score was 70.2 % of control.

Consider “CCCTGAAACCATTAACT (sugars l3 d12 l2, PS)”, for which the calcium oscillation score is 69 % of control.

With CCCTGAAAGAGGGCAG (sugars l3 d10 l3, PS), the calcium oscillation score was 18.4 % of control.

For CCCTTAATTTCACCC (sugars l3 d9 l3, PS), the calcium oscillation score was 103 % of control.

As for CCCTTAATTTCACCCT (sugars l3 d10 l3, PS), the calcium oscillation score is 80.9 % of control.

Regarding “CCCTTAGACATAACACA (sugars l3 d12 l2, PS)”, the calcium oscillation score is 65.5 % of control.

As for “CCCTTCAACATCAGCCA (sugars l2 d13 l2, PS)”, the calcium oscillation score was 47.6 % of control.

Take “CCCTTGATCATATTTGTGGC (sugars l3 d14 l3, PS)”: the calcium oscillation score was 35.7 % of control.

For CCCTTTCAAACCAGCA (sugars l3 d11 l2, PS), the calcium oscillation score was 91.8 % of control.

As to CCGAACTGCGAGGAGC (sugars l3 d10 l3, PS), the calcium oscillation score was 5.43 % of control.

As for “CCGAACTGCGAGGAGCAGCT (sugars l3 d14 l3, PS)”, the calcium oscillation score was 38.9 % of control.

As for CCGAATTTACACCCAA (sugars l2 d10 l4, PS), the calcium oscillation score is 79.1 % of control.

Consider “CCGCCTTTAGTGATTACAGG (sugars l3 d14 l3, PS)”, for which the calcium oscillation score is 4.03 % of control.

Consider CCGTGGTCTGTCTT (sugars l3 d8 l3, PS), for which the calcium oscillation score was 20.9 % of control.

As for CCGTGGTCTGTCTTGG (sugars l3 d10 l3, PS), the calcium oscillation score is 42.2 % of control.

As for CCTAAAGTCCCAGGTC (sugars l3 d10 l3, PS), the calcium oscillation score was 62.9 % of control.

As to “CCTAATAAAAACAATACTA (sugars l4 d11 l4, PS)”, the calcium oscillation score was 62.3 % of control.

For CCTAATCCTGTGCT (sugars l3 d8 l3, PS), the calcium oscillation score was 62.6 % of control.

Regarding CCTAATCCTGTGCTT (sugars l3 d9 l3, PS), the calcium oscillation score is 58.2 % of control.

In the case of CCTAATGAGCCACACT (sugars l3 d10 l3, PS), the calcium oscillation score is 92.6 % of control.

For “CCTACTTTATTCCCTTA (sugars l2 d12 l3, PS)”, the calcium oscillation score is 95.9 % of control.

As for “CCTACTTTATTCCCTTAA (sugars l2 d12 l4, PS)”, the calcium oscillation score was 86.8 % of control.

Take “CCTAGAACACAACACAC (sugars l3 d10 l4, PS)”: the calcium oscillation score was 58.6 % of control.

Take CCTATGCCAATTATTT (sugars l4 d8 l4, PS): the calcium oscillation score is 68.2 % of control.

For the origin of these results see the OligoGym collection.
